Source: patent publication US8431581B2, “Imidazopyrimidines and uses thereof” (priority 2008, dated 2013)

Legend:
[1] = system: HIV variant G140S Q148H integrase; assay: Phenosense (PhenoScreen) assay, G140S Q148H variant; format: cell-based; settings: Human immunodeficiency virus 1, read-out: Phenosense assay G140S Q148H activity value
Source text: (§1) Monogram Bioscience' PhenoScreen assay allows the evaluation of integrase inhibitors for activity against a variety of HIV variants. The assay uses virus generated from 2 DNA constructs; one containing the HIV LTR, gag and pol regions, as well as a luciferase reporter gene in place of the viral envelope genes, and a second DNA construct containing the amphotrophic murine leukemia virus (A-MLV) envelope gene required to pseudotype virions and render them capable of entry into a target cell. Viruses generated using these constructs by transfection into a producer cell line such as 293T are capable of one-round of infection only. Successful integration events are directly proportional to the levels of luciferase expression 48-72 h after infection.
(§2) The viral variants chosen by Avexa Ltd. to screen their in-house integration inhibitors against consist of mutations within the viral integrase enzyme known to confer resistance to a number of known integration inhibitors published in the literature. In particular, the viral variants containing the Q148H/G140S double mutation in integrase, and the N155H/E92Q double mutation in integrase, represent two of the more common viruses identified to arise in patients that are failing treatment with Isentress (Raltegravir, MK-0518).
(§3) Both the Phenosense assay and the Enzyme assay give substantially the same activity values for any particular compound and enzyme pair. The activity of one compound in one assay can therefore be directly compared to the activity of a second compound in the other assay.

[2] = system: HIV variant Y143R integrase; assay: Phenosense (PhenoScreen) assay, Y143R variant; format: cell-based; settings: Human immunodeficiency virus 1, read-out: Phenosense assay Y143R activity value
Source text: as §1, §2, §3

[3] = system: HIV WT integrase; assay: Phenosense (PhenoScreen) assay, wild type virus; format: cell-based; settings: Human immunodeficiency virus 1, read-out: Phenosense assay WT activity value
Source text: as §1, §2, §3

[4] = molecular target: T1, HIV integrase WT (Human immunodeficiency virus type 1 group M subtype B, UniProt P12497); assay: Strand transfer assay (enzyme assay), wild type; format: biochemical, HIV-1
T1 construct: The integrase coding region was then subject to PCR and cloned into a bacterial expression vector; made in house
Source text: (§4) HIV integrase was mutated within a shuttle vector (pGEMNLHE) containing the majority of the HIV-1 gag and pol sequence using site directed mutagenesis to generate integrase sequences that have been published as conferring resistance to published integrase inhibitors. These include, but are not limited to, mutations such as Q148K, Q148H/G140S and N155H/E92Q. The integrase coding region was then subject to PCR and cloned into a bacterial expression vector. The specific introduction of desired mutation(s) was confirmed by sequence analysis. Proteins were expressed, purified and used in strand transfer assays.
(§5) A strand transfer assay procedure similar to that published (Ovenden et al. Phytochemistry. 2004 December; 65(24):3255-9.) is used. Briefly, 400 ng of the enzyme, wild type or drug resistant mutant, is mixed with the compound to be tested and incubated with 30 nM substrate DNA. The substrate DNA is designed to mimic HIV DNA termini that has undergone 3′ end processing, and consists of the annealed U5 LTR sequence oligonucleotides tagged with Digoxigenin (DIG; 5′-[…]-DIG-3′) or biotin (5′-Bio-[…]-3′) so that each substrate has either a DIG or Bio tag on opposite strands. Reactions are carried out for 1 hr at 37° C. Products generated as a result of strand transfer activity are bound to streptavidin plates and detected using anti-DIG-alkaline phosphatase conjugate and p-nitro phenyl phosphate substrate.
as §3

[5] = system: HIV variant T125K F121Y integrase; assay: Phenosense (PhenoScreen) assay, T125K F121Y variant; format: cell-based; settings: Human immunodeficiency virus 1, read-out: Phenosense assay T125K F121Y activity value
Source text: as §1, §2, §3

[6] = system: HIV variant E92Q N155H integrase; assay: Phenosense (PhenoScreen) assay, E92Q N155H variant; format: cell-based; settings: Human immunodeficiency virus 1, read-out: Phenosense assay E92Q N155H activity value
Source text: as §1, §2, §3

[7] = system: HIV variant T661 S153Y integrase; assay: Phenosense (PhenoScreen) assay, T661 S153Y variant; format: cell-based; settings: Human immunodeficiency virus 1, read-out: Phenosense assay T661 S153Y activity value
Source text: as §1, §2, §3

[8] = molecular target: T2, HIV integrase G140S/Q148H (Human immunodeficiency virus type 1 group M subtype B, UniProt P12497, G1287S/Q1295H); assay: Strand transfer assay (enzyme assay), G140S/Q148H mutant; format: biochemical, HIV-1
T2 construct: The integrase coding region was then subject to PCR and cloned into a bacterial expression vector; made in house
Source text: as §4, §5, §3

[9] = molecular target: T3, HIV integrase E92Q/N155H (Human immunodeficiency virus type 1 group M subtype B, UniProt P12497, E1239Q/N1302H); assay: Strand transfer assay (enzyme assay), E92Q/N155H mutant; format: biochemical, HIV-1
T3 construct: The integrase coding region was then subject to PCR and cloned into a bacterial expression vector; made in house
Source text: as §4, §5, §3

[10] = system: HIV-1 reporter virus, wild-type (WT) integrase; assay: Luciferase reporter virus infectivity assay, WT; format: cell-based; settings: Human immunodeficiency virus 1, HEK-293T, 48 h, read-out: Luciferase assay results WT (EC50)
Source text: (§6) Infectivity assays using reporter viruses derived from lentiviral vectors capable of a single round of infection were used to determine the activity (EC50) of compounds. The DNA used to generate viruses for infection was the full-length HIV-1 genome which had been envelope-deleted. In addition, a reporter gene (the firefly luciferase gene from Photinus pyralis) was cloned into the nef region of the HIV backbone for ease of assay readout. […]. Culture supernatants containing VSV-G pseudotyped virions were harvested 64 h post transfection, clarified by centrifugation to remove cell debris, and frozen at −70° C. until use.
(§7) HIV integrase was mutated within a shuttle vector (pGEM) containing the majority of the HIV-1 gag and pol sequence using site-directed mutagenesis to generate sequences that are known to confer resistance to published integrase inhibitors. These include but are not limited to mutations such as Q148H/G140S (in tables 2 and 3 # QHGS), N155H/E92Q (in table 2 # NHEQ), F121Y/T124K (in table 2 FYTK), Y143R (in table 2 # Y143R) and the triple mutant Q148K/G140A/E138A. (in table 2 # QKGAEA). The mutated integrase coding region within the shuttle vector was sequence verified, and then exchanged for the wild-type (WT) coding sequence in the reporter virus DNA backbone.
(§8) 293T cells were plated out at 12000 cells per well in CellView 96-well cell culture plates (Invitrogen) 16 h prior to compound addition. Compounds were preincubated with cells for 4 h at 37° C. prior to the addition of virus sufficient to generate approximately 10000 Luciferase light units (as measured by the Victor Wallace luminometer) upon assaying using the Bright-Glo™ reagent (Promega) according to the manufacturer's instructions at 48 h post infection.

[11] = system: HIV-1 reporter virus, integrase Q148H/G140S (QHGS); assay: Luciferase reporter virus infectivity assay, QHGS mutant; format: cell-based; settings: Human immunodeficiency virus 1, HEK-293T, read-out: Luciferase assay results QHGS (EC50)
Source text: as §6, §7, §8

[12] = system: HIV-1 reporter virus, integrase N155H/E92Q (NHEQ); assay: Luciferase reporter virus infectivity assay, NHEQ mutant; format: cell-based; settings: Human immunodeficiency virus 1, HEK-293T, read-out: Luciferase assay results NHEQ (EC50)
Source text: as §6, §7, §8

SMILES | IC50 [4] | IC50 [8] | IC50 [9] | EC50 [10] | EC50 [11] | further results
O=C(Cn1ccn2c(=O)c(O)c(-c3ncc(Cc4ccc(F)cc4)o3)nc12)N1CCCCC1 | 1 to 100 nM | – | – | – | – | EC50 [1]: 1000 to 10000 nM; EC50 [2]: 100 to 1000 nM; EC50 [3]: 1 to 100 nM; EC50 [5]: 100 to 1000 nM; EC50 [6]: 100 to 1000 nM; EC50 [7]: 1 to 100 nM
Cn1ccn2c(=O)c(O)c(-c3ncc(Cc4ccc(F)cc4)s3)nc12 | 1 to 100 nM | 1 to 100 nM | 100 to 1000 nM | – | – | –
Cn1ccn2c(=O)c(O)c(-c3ncc(Cc4ccc(Cl)cc4)s3)nc12 | 1 to 100 nM | 100 to 1000 nM | 100 to 1000 nM | – | – | –
Cn1ccn2c(=O)c(O)c(-c3ncc(Cc4ccc(Cl)c(Cl)c4)s3)nc12 | 1 to 100 nM | 100 to 1000 nM | 100 to 1000 nM | – | – | –
Cn1ccn2c(=O)c(O)c(-c3ncc(Cc4ccc(F)c(Cl)c4)s3)nc12 | 1 to 100 nM | 100 to 1000 nM | 100 to 1000 nM | – | – | –
Cn1ccn2c(=O)c(O)c(C(=O)NCc3ccc(Cl)c(Cl)c3)nc12 | 100 to 1000 nM | – | – | – | – | EC50 [1]: > 10000 nM; EC50 [2]: 1 to 100 nM; EC50 [3]: 1 to 100 nM; EC50 [5]: 1000 to 10000 nM; EC50 [6]: > 10000 nM; EC50 [7]: 100 to 1000 nM
Cn1ccn2c(=O)c(O)c(C(=O)NCc3ccc(F)cc3)nc12 | 100 to 1000 nM | – | – | – | – | EC50 [1]: > 10000 nM; EC50 [2]: 100 to 1000 nM; EC50 [3]: 100 to 1000 nM; EC50 [5]: > 10000 nM; EC50 [6]: > 10000 nM; EC50 [7]: 1000 to 10000 nM
C[C@H]1CN(C(=O)Cn2ccn3c(=O)c(O)c(-c4ncc(Cc5ccc(Cl)c(Cl)c5)s4)nc23)C[C@H](C)O1 | – | – | – | 1 to 100 nM | 100 to 1000 nM | –
O=C(Cn1ccn2c(=O)c(O)c(-c3ncc(Cc4ccc(F)cc4)s3)nc12)N1CCCCC1 | – | – | – | 1 to 100 nM | > 1000 nM | –
C[C@H]1CN(C(=O)Cn2ccn3c(=O)c(O)c(-c4ncc(Cc5ccc(F)c(Cl)c5)s4)nc23)C[C@H](C)O1 | – | – | – | 100 to 1000 nM | 100 to 1000 nM | EC50 [12]: 100 to 1000 nM
CN1CCN(C(=O)Cn2ccn3c(=O)c(O)c(-c4ncc(Cc5ccc(F)cc5)s4)nc23)CC1 | – | – | – | 100 to 1000 nM | > 1000 nM | EC50 [12]: 100 to 1000 nM
C[C@H]1CN(C(=O)Cn2ccn3c(=O)c(O)c(-c4ncc(Cc5ccc(F)cc5)s4)nc23)C[C@H](C)O1 [drawing 254] | – | – | – | 1 to 100 nM | 100 to 1000 nM | EC50 [12]: 100 to 1000 nM
